pKd: −log10 of the molar value.
Test system: coloncarcinoma cells HT29
Test: Kd on coloncarcinoma cells HT29
Assay type: binding
Description: 0.9 ml of [^99mTc(OH2)3(CO)3]^+ as prepared in example 1 is mixed with 0.1 ml of 10^−3M His-Neurotensin(8-13) (HRRPYIIL) and kept in a sealed tube at 75° C. for one hour. After this time the reaction mixture is cooled to room temperature. As evident from reversed phase column HPLC the yield is >95%. The Kd of this compound on coloncarcinoma cells HT29 is 1.0 nM.

Question: With “HRRPYIIL [His-Neurotensin(8-13), His-Neurotensin(8-13) (HRRPYIIL) labelled with [99mTc(OH2)3(CO)3]+]” as the sequence, how does the pKd read?
Answer: 9.00

Reference: patent US6344178B1, “Method for the preparation of facial metal tricarbonyl compounds and their use in the labelling of biologically active substrates” (Mallinckrodt Inc., priority 1997, dated 2002)
